PubChem BioAssay AID463229 (Broad Institute, 2010)

System: INS-1E rat beta cells, no cytokines, CellTiter-Glo ATP, 48 h
Test: cytokine-free beta-cell viability effect – INS-1E rat cells, ATP luminescence, cherry pick, counter-screen for beta-cell apoptosis protection project, dose response (AID 463229)

Going from `CC(=O)c1ccc(OCc2cc(C(=O)N3CCCCC3c3cccnc3)no2)cc1` (stereo not drawn) to `COc1ccc(Nc2nc(N3CCCC3)c3ccccc3n2)cc1`, the AC50 falls from 22.4 µM to 9.85 µM (2.3-fold).

Going from `CC(=O)Oc1c(C)cc(Cl)cc1C(=O)Nc1ccc([N+](=O)[O-])cc1Cl` to `O=C(Nc1ccc([N+](=O)[O-])cc1)Nc1ccc(Cl)cc1F`, the AC50 rises from 1.43 µM to 6.71 µM (4.7-fold).

`Cc1cc(C)n(-c2nc(Nc3ccccc3C(F)(F)F)nc(-n3nc(C)cc3C)n2)n1` and `CCOc1cc(/C=N/Nc2cc(C)nc(-n3nc(C)cc3C)n2)ccc1O` are within 1.5-fold of each other in AC50: 6.87 µM for the first, 5.78 µM for the second.

First: CNc1nc2cc([N+](=O)[O-])c([N+](=O)[O-])cc2nc1NC
Second: Cc1cccc(NC(=O)c2ccc([N+](=O)[O-])s2)c1C
The AC50 of the first is 94-fold lower: 0.278 µM for the first, 26.1 µM for the second.

First: O=C(CN(Cc1ccco1)Cc1ccco1)Nc1cc(S(=O)(=O)N2CCCCC2)ccc1Cl
Second: O=C(Nc1cc(S(=O)(=O)N2CCCCC2)ccc1Cl)c1ccccc1NS(=O)(=O)c1ccc(F)cc1
The AC50 of the first is 2-fold higher: 7.47 µM for the first, 3.66 µM for the second.

First: Cc1ccc(C(=O)Nc2cccc3[nH]c(C(F)(F)F)nc23)cc1
Second: Cc1ccc(C(=O)c2c(C)oc3c2C(=O)C(=O)c2ccccc2-3)cc1
The AC50 of the first is 4.6-fold higher: 13.3 µM for the first, 2.92 µM for the second.

`O=NN(CCc1ccncc1)c1ccc(OCc2ccccc2)cc1` and `COc1ccc(-c2cn(Cc3ccc(C(=O)c4ccccc4)cc3)nn2)cc1` are within 1.5-fold of each other in AC50: 8.16 µM for the first, 11.6 µM for the second.

Going from `Cn1ncnc2c(=O)n(C)c(=O)nc1-2` to `CCOC(=O)c1cnc(-n2nc(C)cc2C)nc1NC1CCCC1`, the AC50 rises from 1.48 µM to 2.38 µM (1.6-fold).

First: FC(F)(F)c1cccc(-c2nc3nc(Cl)c(Cl)nc3[nH]2)c1
Second: FC(F)(F)c1nnc2c(Sc3ccccc3)nc3ccc(Cl)cc3n12
The AC50 of the first is 3.5-fold lower: 3.13 µM for the first, 11.1 µM for the second.

Compared with `c1ccc2c(c1)OCC(CNc1ncnc3sccc13)O2` (stereo not drawn), `Cc1ccc2nc(-c3ccccn3)c(NC3CCCC3)n2c1` is 10-fold higher in AC50: 1.6 µM for the first, 16.6 µM for the second.

First: Cc1ccccc1CS(=O)(=O)c1nnc([C@H](Cc2ccccc2)NC(=O)OC(C)(C)C)o1
Second: CCN1CCN(C2=C(NS(=O)(=O)c3ccccc3)C(=O)c3ccccc3C2=O)CC1
The AC50 of the first is 1.6-fold lower: 13 µM for the first, 20.3 µM for the second.

First: COc1cccc(/C=N/NC(=O)c2cc3cc([N+](=O)[O-])ccc3s2)c1O
Second: Cn1cc(C(=O)N/N=C/c2c(O)ccc3ccccc23)ccc1=O
The AC50 of the first is 2.8-fold higher: 7.08 µM for the first, 2.5 µM for the second.

First: CCN(CC)CCOC(=O)c1ccc(N/C=C(/C#N)c2nc(-c3ccc4c(c3)OCO4)cs2)cc1
Second: CCOC(=O)/C(=C\c1ccc([N+](=O)[O-])cc1)C(=O)c1cc(C(C)=O)c(Nc2ccccc2)s1
The AC50 of the first is 5.9-fold higher: 14.2 µM for the first, 2.41 µM for the second.

`CCCC(=O)NC(c1ccccc1)c1ccc2cccnc2c1O` (stereo not drawn) and `CCCC(=O)NC(c1ccc(Cl)cc1Cl)c1ccc2cccnc2c1O` (stereo not drawn) are within 1.5-fold of each other in AC50: 2.85 µM for the first, 2.3 µM for the second.

`CC(=O)N1CCN(c2ccc(Oc3ccc([N+](=O)[O-])c(C(F)(F)F)c3)cc2)CC1` and `CCn1c(=NC(=O)c2ccc(S(=O)(=O)N3CCOCC3)cc2)sc2cccc(OC)c21` are within 1.5-fold of each other in AC50: 7.04 µM for the first, 8.4 µM for the second.

First: Cc1ccc(NC(=O)c2c(C(F)(F)F)nn(C)c2SCc2cccc(C(F)(F)F)c2)cc1C
Second: CCn1c(C)c(C)c2cc(C(=O)N3CCc4ccccc4C3)ccc21
The AC50 of the first is 3.8-fold higher: 11.8 µM for the first, 3.14 µM for the second.

`O=C(NCCCn1ccnc1)c1ccc(-c2ccccc2)cc1` and `O=C(Nc1ccccc1O)C(c1ccccc1)c1ccccc1` are within 1.5-fold of each other in AC50: 8.12 µM for the first, 6.92 µM for the second.

Going from `Cc1[nH]n(-c2ccccc2)c(=O)c1/C=N/Nc1nncc(-c2ccccc2)n1` to `NC(N)=N/N=C/c1ccc(N(c2ccccc2)c2ccccc2)cc1`, the AC50 rises from 1.22 µM to 7.36 µM (6-fold).

`CCCCC[n+]1cccc2c3ccccc3ccc21` and `O=C(N/N=C/c1c(O)ccc2ccccc12)c1ccc(Br)o1` are within 1.5-fold of each other in AC50: 5.92 µM for the first, 4.83 µM for the second.

`O=C(Nc1ccc(Cl)cc1)c1nc[nH]c1C(=O)NCCN(CCNC(=O)c1[nH]cnc1C(=O)Nc1ccc(Cl)cc1)CCNC(=O)c1[nH]cnc1C(=O)Nc1ccc(Cl)cc1` and `O=C(NNC(=O)c1ccccc1O)c1ccc(Cl)c(S(=O)(=O)N2CCc3ccccc32)c1` are within 1.5-fold of each other in AC50: 8.08 µM for the first, 7.82 µM for the second.

Going from `C=CCn1c(=NC(=O)c2cc(-c3cccs3)nc3ccccc23)sc2cc(S(N)(=O)=O)ccc21` to `COc1cc(C(=O)N/N=C(\c2ccccc2)c2ccccn2)cc(OC)c1OC`, the AC50 falls from 17.9 µM to 3.3 µM (5.4-fold).

`O=C(Nc1cccnc1)c1cccnc1` and `O=C(Nc1ccc(Cl)c(Cl)c1)N1CCSC1c1ccco1` (stereo not drawn) are within 1.5-fold of each other in AC50: 10.9 µM for the first, 14.2 µM for the second.

Going from `O=c1cc(N2CCN(c3cccc(Cl)c3)CC2)[nH]c(=O)n1C1CCCCC1` to `Nc1nonc1-n1nnc(C(=O)N/N=C/c2cc(Cl)ccc2O)c1CN1CCCCCC1`, the AC50 rises from 1.66 µM to 10.5 µM (6.3-fold).

`O=C(OCn1ncc(Br)c(Br)c1=O)c1ccc(F)cc1` and `CCOc1ccc(/C=N/NC(=O)c2[nH]ncc2Br)c(O)c1` are within 1.5-fold of each other in AC50: 5.09 µM for the first, 3.66 µM for the second.

Compared with `COc1ccc(-c2sc3ccccc3c2-c2ccc(OCCN(C)C)cc2)cc1`, `Cc1ccc(-n2c(-c3ccc(Br)cc3)c[n+]3c2CCc2ccc4cccnc4c2-3)cc1` is 15-fold lower in AC50: 7.12 µM for the first, 0.482 µM for the second.

Going from `CCc1ccc(OCC(=O)NC(NC(=S)Nc2ccc(C)cc2C)C(Cl)(Cl)Cl)cc1` (stereo not drawn) to `COC(=O)[C@H](CC(C)C)N(Cc1ccccc1)S(=O)(=O)N(Cc1ccc(OC)cc1)[C@@H](CC(C)C)C(=O)OC`, the AC50 falls from 11.2 µM to 5.08 µM (2.2-fold).

`Cc1ccnc2c1ccc1c(C)ccnc12` showed an AC50 of 3.39 µM.
